The results in this text go back to US20260049062A1, “SARS-COV-2 INHIBITORS FOR TREATING CORONAVIRUS INFECTIONS” (Insilico Medicine IP Limited, priority 2021, published 2026).

The EC50 is the concentration at which the effect is half-maximal.

The assay has as its system SARS-CoV-2. The assay can be described thus: In vitro antiviral cell-based assay (live SARS-CoV-2), plaque reduction assay in VeroE6 cells. Particulars: Severe acute respiratory syndrome coronavirus 2, Vero, read-out: Vero EC50 (μM). (In general: In a plaque reduction assay, fewer plaques than in the control indicate reduced infectivity or spread.)

For `CC(C(=O)NC1CCC(F)(F)CC1)(c1cncnc1)N(C(=O)[C@H](F)Cl)c1ccc(-c2cncs2)cc1` (single isomer, unassigned) [Example 1a], the EC50 lay within 0.1 to 1 µM.
